{"source": "patent US20080234132A1", "about": "“Microcin B17 Analogs And Methods For Their Preparation And Use” (priority 2004, published 2008)", "key": {"[1]": {"molecular_target": "T1, Human topoisomerase I (Homo sapiens, UniProt P11387)", "T1 construct": "purchased TopoGEN Inc. (Port Orange, Fla., USA)", "T1 sequence (P11387 1-765)": "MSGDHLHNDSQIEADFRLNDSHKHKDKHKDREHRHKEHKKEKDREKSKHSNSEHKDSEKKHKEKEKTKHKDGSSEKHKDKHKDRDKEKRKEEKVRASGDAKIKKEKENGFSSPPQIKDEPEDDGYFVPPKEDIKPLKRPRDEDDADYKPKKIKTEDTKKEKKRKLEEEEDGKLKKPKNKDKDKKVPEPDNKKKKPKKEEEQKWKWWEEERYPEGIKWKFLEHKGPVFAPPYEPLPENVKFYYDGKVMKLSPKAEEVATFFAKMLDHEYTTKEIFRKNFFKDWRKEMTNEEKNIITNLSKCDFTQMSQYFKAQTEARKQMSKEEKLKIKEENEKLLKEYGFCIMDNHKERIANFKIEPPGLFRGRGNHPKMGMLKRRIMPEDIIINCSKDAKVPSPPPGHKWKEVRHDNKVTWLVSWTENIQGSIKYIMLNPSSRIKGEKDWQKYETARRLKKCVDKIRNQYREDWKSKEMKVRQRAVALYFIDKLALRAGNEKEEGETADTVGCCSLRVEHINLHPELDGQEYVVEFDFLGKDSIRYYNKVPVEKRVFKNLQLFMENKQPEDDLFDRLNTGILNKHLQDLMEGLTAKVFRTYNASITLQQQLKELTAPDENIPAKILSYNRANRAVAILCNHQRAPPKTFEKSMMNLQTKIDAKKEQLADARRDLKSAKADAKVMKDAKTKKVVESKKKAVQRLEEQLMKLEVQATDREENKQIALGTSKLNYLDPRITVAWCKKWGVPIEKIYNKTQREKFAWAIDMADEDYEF", "assay": "Human topoisomerase I-mediated relaxation assay", "assay_type": "biochemical", "conditions": "read-out: Topo I Human IC50", "method": "Human topoisomerase I-mediated relaxation assays were performed as per the manufacturer's instructions. Topoisomerase I (2 nM) was added to reactions containing 10 mM of Tris.HCl, pH 7.9, 150 mM NaCl, 100 μM spermidine.HCl, 5% glycerol, 0.1% BSA, 4.6 nM of […] pBR322 DNA, and inhibitor where appropriate.\n(§1) All in vitro reactions were incubated at 37° C. for 30 minutes. The DMSO concentration in each reaction was kept constant at 3.33%. Reactions were quenched with the addition of an equal volume of phenol/chloroform/isoamyl alcohol (25:24:1) and one tenth volume of loading buffer containing 40% sucrose, 100 mM Tris.HCl pH 7.5, 100 mM EDTA, 2 mg/mL bromophenol blue. The proteins were precipitated by vortexing, followed by centrifugation for 5 minutes at 16 000 g. The aqueous phase was loaded onto 1% agarose gels in Tris-acetate and were electrophoresed at 60 V for three hours in Tris-acetate buffer. The gels were stained in 1 μg/mL ethidium bromide. The gels were visualised using UV light and were documented and analysed using Syngene software."}, "[2]": {"system": "HT-29 cells", "assay": "cells", "assay_type": "cell-based, human", "conditions": "Homo sapiens, HT-29; MTT, 24 hours; read-out: In vivo HT29 Cells (approximate IC50)", "method": "(§2) Human cell cultures were initiated from frozen cell stocks (the gift of Dr J. Gavrilovic, UEA). The HT-29 line is derived from a colorectal adenocarcinoma while HeLa cells are derived from a cervical epithelial adenocarcinoma (see FIG. 35). Both human cell lines form adherent cultures and were maintained at 37° C. in T25 culture vessels as 10 mL cultures in CO2 Independent Media containing 10% foetal bovine serum (EU approved), 4 mM L-glutamine, penicillin/streptomycin (Invitrogen). A subcultivation ratio of 1:3 and 1:6 were maintained for HT-29 and HeLa lines respectively. Media was renewed every three days.\n(§3) The assay to determine the effects of the heterocyclic compounds on mammalian cells is based on the cleavage of the yellow tetrazolium salt MTT to purple formazoan crystals by metabolically active cells (Roche). After incubation with MTT and solubilization, the resulting coloured solution is quantified using a scanning spectrophotometer. Each of the cell lines was trypsinised and resuspended in fresh media prior to transfer to sterile flat-bottomed microtitre plates (200 μL per well) and allowed to recover for 16 hours. Five thousand HT-29 or 7500 HeLa cells per 100 μL culture medium were incubated in the presence of the drugs in various concentrations (totalling 10 μL) for 24 hours. Cell viability was then determined by addition of MTT reagent (20 μL) in each well, as per manufacturer's instructions and incubated for a further 4 hours. Solubilization solution (100 μL) was added per well and the plates incubated overnight at 37° C. The plates were read in a spectrophotometer (scanning from 500-650 nm, signal peak at 570 nm). A representative result is illustrated in FIG. 36."}, "[3]": {"system": "HeLa cells", "assay": "cells", "assay_type": "cell-based, human", "conditions": "Homo sapiens, HeLa; MTT, 24 hours; read-out: In vivo HeLa Cells (approximate IC50)", "method": "as §2, §3"}, "[4]": {"molecular_target": "T2, E. coli Topoisomerase IV (Escherichia coli, UniProt P0AFI2+P20083)", "T2 sequence (P20083 whole entry)": "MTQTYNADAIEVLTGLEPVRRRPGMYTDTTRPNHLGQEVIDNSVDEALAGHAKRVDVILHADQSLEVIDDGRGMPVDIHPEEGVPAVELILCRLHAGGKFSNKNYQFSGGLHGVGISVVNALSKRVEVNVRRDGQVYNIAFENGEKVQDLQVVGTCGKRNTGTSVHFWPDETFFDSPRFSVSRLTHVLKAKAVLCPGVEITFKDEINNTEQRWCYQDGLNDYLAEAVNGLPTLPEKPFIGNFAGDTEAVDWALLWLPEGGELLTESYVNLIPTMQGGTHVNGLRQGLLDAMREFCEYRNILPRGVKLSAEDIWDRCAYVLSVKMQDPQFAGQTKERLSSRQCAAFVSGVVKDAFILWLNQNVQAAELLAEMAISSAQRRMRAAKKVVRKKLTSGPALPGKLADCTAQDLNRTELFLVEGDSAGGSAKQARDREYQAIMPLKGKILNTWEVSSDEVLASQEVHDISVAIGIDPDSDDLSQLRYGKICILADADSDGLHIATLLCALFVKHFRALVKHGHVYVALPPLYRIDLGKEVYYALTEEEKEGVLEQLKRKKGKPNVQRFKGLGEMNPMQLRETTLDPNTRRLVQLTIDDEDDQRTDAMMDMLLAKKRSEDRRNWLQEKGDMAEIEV", "T2 sequence (P0AFI2 whole entry)": "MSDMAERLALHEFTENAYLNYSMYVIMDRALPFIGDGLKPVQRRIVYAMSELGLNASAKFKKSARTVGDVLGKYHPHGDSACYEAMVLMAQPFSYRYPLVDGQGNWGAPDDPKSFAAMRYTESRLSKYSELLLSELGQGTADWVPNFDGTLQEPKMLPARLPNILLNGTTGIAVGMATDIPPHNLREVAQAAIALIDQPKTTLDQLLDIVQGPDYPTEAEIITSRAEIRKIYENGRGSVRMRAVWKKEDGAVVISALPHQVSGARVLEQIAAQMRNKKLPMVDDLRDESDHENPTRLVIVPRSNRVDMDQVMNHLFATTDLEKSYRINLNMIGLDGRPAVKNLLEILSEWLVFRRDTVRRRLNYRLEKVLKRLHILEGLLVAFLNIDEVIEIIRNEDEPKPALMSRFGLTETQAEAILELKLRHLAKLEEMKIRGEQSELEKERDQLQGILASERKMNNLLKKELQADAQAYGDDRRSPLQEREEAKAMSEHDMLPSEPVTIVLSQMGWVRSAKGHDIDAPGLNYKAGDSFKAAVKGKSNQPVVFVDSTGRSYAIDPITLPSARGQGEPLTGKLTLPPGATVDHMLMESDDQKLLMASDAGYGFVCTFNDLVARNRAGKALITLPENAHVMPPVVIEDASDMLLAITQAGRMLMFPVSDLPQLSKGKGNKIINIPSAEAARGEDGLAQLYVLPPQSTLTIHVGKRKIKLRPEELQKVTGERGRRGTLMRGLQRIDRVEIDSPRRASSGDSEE", "assay": "biochemical", "set-up": "purchased John Innes Enterprises (Norwich, UK)", "conditions": "read-out: Topo IV, R (relaxation reaction) IC50", "protocol": "(§4) Topoisomerase IV-mediated relaxation assays and decatenation assays were performed as previously described (see Peng and Marians, 1993). […] Decatenation assays contained topoisomerase IV (4 nM), 40 mM Tris HCl pH 7.5 at 30° C., 6 mM MgCl2, 10 mM DTT, 1 mM spermidine.HCl, 100 mM potassium glutamate, 0.5 mM ATP, 0.5 mg/mL BSA, 200 ng of kinetoplast DNA, and inhibitor where appropriate."}, "[5]": {"molecular_target": "T2, E. coli Topoisomerase IV", "assay": "biochemical", "assay_type": "biochemical", "set-up": "purchased John Innes Enterprises (Norwich, UK)", "protocol": "as §4"}, "[6]": {"system": "E. coli", "assay": "In vivo E. coli (Table 5-C summary of haloassays)", "assay_type": "cell-based", "conditions": "number = not active up to this concentration", "protocol": "In vivo activity was tested using the bioassay developed by Sinha Roy, 1999, with some modifications. The Microcin-sensitive E. coli DH5α was used as the indicator strain. Lawns of cells were prepared by spreading 100 μL of a 10 mL LB culture grown at 37° C. overnight mixed with 3 mL of LSS, on LB+agar (10 g/L) plates. […] The plates were incubated at 37° C. overnight and halos of growth inhibition were qualitatively analyzed by determining their diameters (see FIG. 9).\nLawns of cells were prepared by spreading, on top of a LB+Agar plate, 3 ml of melted LSS medium (half-agar strength: 0.3 g Agar/50 ml LB) inoculated with 100 μl of a 10 ml LB overnight culture of E. coli cells grown at 37° C. […] The plates were incubated at 37° C. overnight and growth inhibition was qualitatively analysed by measuring the diameter of each halo.\nHaloassays were performed as described above."}, "[7]": {"molecular_target": "Human topoisomerase IIα (Homo sapiens, UniProt P11388)", "sequence (P11388 whole entry)": "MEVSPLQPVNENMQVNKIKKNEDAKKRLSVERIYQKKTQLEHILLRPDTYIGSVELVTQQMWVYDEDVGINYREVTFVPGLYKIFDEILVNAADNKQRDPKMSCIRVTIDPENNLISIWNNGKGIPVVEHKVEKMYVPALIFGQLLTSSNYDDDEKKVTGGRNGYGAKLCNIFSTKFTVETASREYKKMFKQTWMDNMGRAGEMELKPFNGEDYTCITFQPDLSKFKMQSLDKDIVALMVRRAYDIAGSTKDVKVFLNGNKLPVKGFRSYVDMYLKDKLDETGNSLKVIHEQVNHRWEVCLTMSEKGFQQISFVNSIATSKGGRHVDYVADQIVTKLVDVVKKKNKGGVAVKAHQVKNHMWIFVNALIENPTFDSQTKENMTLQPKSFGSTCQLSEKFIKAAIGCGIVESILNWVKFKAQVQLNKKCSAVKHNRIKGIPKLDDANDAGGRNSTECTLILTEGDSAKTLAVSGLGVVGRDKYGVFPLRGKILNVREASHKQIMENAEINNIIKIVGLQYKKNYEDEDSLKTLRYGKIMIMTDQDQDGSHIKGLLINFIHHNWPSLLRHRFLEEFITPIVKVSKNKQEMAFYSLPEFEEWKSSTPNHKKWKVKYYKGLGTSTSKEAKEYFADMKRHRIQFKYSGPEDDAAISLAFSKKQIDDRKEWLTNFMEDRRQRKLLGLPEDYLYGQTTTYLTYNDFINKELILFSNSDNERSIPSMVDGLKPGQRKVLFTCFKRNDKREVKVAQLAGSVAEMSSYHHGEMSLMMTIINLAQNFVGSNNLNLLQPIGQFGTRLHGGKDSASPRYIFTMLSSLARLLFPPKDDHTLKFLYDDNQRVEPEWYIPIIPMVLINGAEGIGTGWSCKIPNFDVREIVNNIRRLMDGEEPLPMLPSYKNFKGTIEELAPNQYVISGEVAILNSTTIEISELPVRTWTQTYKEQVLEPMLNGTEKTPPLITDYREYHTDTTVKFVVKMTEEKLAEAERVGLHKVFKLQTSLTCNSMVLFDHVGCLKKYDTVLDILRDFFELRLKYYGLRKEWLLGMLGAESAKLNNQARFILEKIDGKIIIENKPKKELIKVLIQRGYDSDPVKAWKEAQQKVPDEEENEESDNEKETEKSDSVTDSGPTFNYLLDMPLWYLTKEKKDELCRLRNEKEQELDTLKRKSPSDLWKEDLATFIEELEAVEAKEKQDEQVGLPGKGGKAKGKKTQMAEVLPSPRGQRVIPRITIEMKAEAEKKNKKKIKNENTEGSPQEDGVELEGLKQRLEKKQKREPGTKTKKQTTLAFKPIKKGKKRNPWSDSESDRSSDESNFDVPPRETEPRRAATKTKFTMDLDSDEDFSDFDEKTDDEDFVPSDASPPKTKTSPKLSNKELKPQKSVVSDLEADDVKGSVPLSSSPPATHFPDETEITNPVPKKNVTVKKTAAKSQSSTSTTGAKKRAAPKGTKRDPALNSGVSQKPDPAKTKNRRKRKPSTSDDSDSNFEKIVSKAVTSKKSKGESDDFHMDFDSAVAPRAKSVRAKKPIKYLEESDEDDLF", "assay": "Human topoisomerase IIα-mediated decatenation assay", "assay_type": "biochemical", "set-up": "purchased TopoGEN Inc", "method": "Human Topoisomerase IIα-mediated relaxation assays and decatenation assays were performed as per the manufacturer's instructions in a total of 20 μL. Relaxation assays contained Topoisomerase IIα (4.3 nM), 50 mM Tris.HCl pH 8,120 mM KCl, 10 mM MgCl2, 0.5 mM DTT, 0.5 mM ATP, 4.6 nM of supercoiled pBR322 DNA, and inhibitor where appropriate. Decatenation assays substituted the supercoiled DNA with 200 ng catenated kinetoplast DNA.\nas §1"}, "[8]": {"system": "HeLa cells", "assay": "MTT cell viability assay, HeLa", "assay_type": "cell-based, human", "conditions": "cell reads on: Active", "protocol": "Human cell cultures were initiated from frozen cell stocks (the gift of Dr J. Gavrilovic, UEA). […] Both human cell lines form adherent cultures and were maintained at 37° C. in T25 culture vessels as 10 mL cultures in CO2 Independent Media containing 10% foetal bovine serum (EU approved), 4 mM L-glutamine, penicillin/streptomycin (Invitrogen). […] Media was renewed every three days.\nAfter incubation with MTT and solubilization, the resulting coloured solution is quantified using a scanning spectrophotometer. […] Cell viability was then determined by addition of MTT reagent (20 μL) in each well, as per manufacturer's instructions and incubated for a further 4 hours. Solubilization solution (100 μL) was added per well and the plates incubated overnight at 37° C. The plates were read in a spectrophotometer (scanning from 500-650 nm, signal peak at 570 nm)."}}, "note": "Read-outs that look alike come from different tables or passages of the source."}
{"smiles": "CC(C)(C)OC(=O)NCc1nc(C(=O)O)co1", "note": "[#6]", "values": [{"measurement": "IC50", "setting": "[1]", "value": "> 300", "unit": "µM"}, {"measurement": "IC50", "setting": "[2]", "value": "> 75", "unit": "µM"}, {"measurement": "IC50", "setting": "[3]", "value": "> 75", "unit": "µM"}, {"measurement": "IC50", "setting": "[4]", "value": "> 300", "unit": "µM"}, {"measurement": "Topo IV, D (decatenation reaction) IC50", "setting": "[5]", "value": "weakly"}, {"measurement": "IC50", "setting": "[5]; read-out: Topo IV, D (decatenation reaction) IC50", "value": 200, "unit": "µM"}, {"measurement": "In vivo E. coli", "setting": "[6]", "value": "(→400 μM)"}, {"measurement": "Decatenation activity of eukaryotic topoisomerase IIα, sensitivity", "setting": "[7]", "value": "albeit weakly"}, {"measurement": "In vivo HeLa Cells activity", "setting": "[8]", "value": "Not"}]}
